2 molecules from US20210087175A1, “Crystalline Form II of Darolutamide” (Sandoz AG, priority 2018, published 2021) can be followed below.

Data set [1] is described as follows: Time-dependent solubility of slurries (HPLC) in aqueous hydrochloric acid (0.1 N) and phosphate buffer (pH 7.5) at 37° C. In kind it is physicochemical. The procedure: a) Solubility in Aqueous Hydrochloric Acid (0.1 N)
102.39 mg of darolutamide form I were slurried in 20 mL aqueous hydrochloric acid (0.1 N) at 37° C.
99.41 mg of darolutamide form II were slurried in 20 mL aqueous hydrochloric acid (0.1 N) at 37° C.
b) Solubility in Phosphate Buffer (pH 7.5)
105.02 mg of darolutamide form I were slurried in 20 mL […] at 37° C.
103.41 mg of darolutamide form II were slurried in 20 mL […] at 37° C.
Samples were taken after 5 min, 15 min and 60 min. The suspensions were filtered and subjected undiluted to HPLC. The absolute solubility was calculated by creating a linear calibration curve (see below). Results are reported in Table 4 and in FIGS. 10 and 11.
Solutions of different concentrations (Table 5) of darolutamide were prepared in acetonitrile/water (75% v/v) at 37° C. and subjected to HPLC measurement. The resulting areas were illustrated as a function of the concentrations and a linear dependency could be observed (FIG. 12).

Test in data set [2]: as above
The data set is classed as physicochemical. Conditions: phosphate buffer (pH 7.5).

Data set [3] can be described thus: Gravimetric moisture sorption (GMS). In kind it is physicochemical. Conditions: for phase change during the GMS experiments: 0% to approximately 90% r.h.; for water uptake from 0% to 90% RH: 25±0.1° C. The procedure:
Moisture sorption isotherms were recorded with an SPSx-1p moisture sorption analyzer (ProUmid, Ulm. The measurement cycle was started at a relative humidity (r.h.) of 25%. Relative humidity was then decreased to 5% r.h. in 5% steps, followed by a further decrease to 3% r.h. and to 0% r.h. Afterwards r.h. was increased from 0% to approximately 90% r.h. in a sorption cycle and decreased to 0% in a desorption cycle in 5% steps. Finally r.h. was increased to 25% r.h. in 5% steps.
The time per step was set to a minimum of 2 hours and a maximum of 6 hours. If an equilibrium condition with a constant mass of 0.01% within 1 hour was reached before the maximum time for all examined samples the sequential humidity step was applied before the maximum time of 6 hours. If no equilibrium was achieved the consecutive humidity step was applied after the maximum time of 6 hours. The temperature was 25±0.1° C.

Data set [4] can be described thus: Food effect / blood levels after oral administration. In kind it is in vivo.

`CC(O)c1cc(C(=O)N[C@@H](C)Cn2ccc(-c3ccc(C#N)c(Cl)c3)n2)n[nH]1` (mixture of isomers) [Form I, N-{(2S)-1-[3-(3-chloro-4-cyanophenyl)-1H-pyrazol-1-yl]-propan-2-yl}-5-[(1RS)-1-hydroxyethyl]-1H-pyrazole-3-carboxamide]: the “solubility (concentration in solution)” value in data set [1] (slurry time 5 min) is 43 µg/mL; in data set [1] (slurry time 15 min), 41 µg/mL; in data set [1] (slurry time 60 min) it was 38 µg/mL; in data set [2] (slurry time 5 min), 43 µg/mL; in data set [2] (slurry time 15 min), 40 µg/mL; in data set [2] (slurry time 60 min), 42 µg/mL. Further, the “phase change during the GMS experiments” value in data set [3] (25° C.) is given as “Neither form I nor form II underwent any phase change”. In data set [3] (GMS), the “water uptake from 0% to 90% RH” value is “+1.7%”.
As for `CC(O)c1cc(C(=O)N[C@@H](C)Cn2ccc(-c3ccc(C#N)c(Cl)c3)n2)n[nH]1` (mixture of isomers) [Form II, N-{(2S)-1-[3-(3-chloro-4-cyanophenyl)-1H-pyrazol-1-yl]-propan-2-yl}-5-[(1RS)-1-hydroxyethyl]-1H-pyrazole-3-carboxamide], the “solubility (concentration in solution)” value in data set [1] (slurry time 5 min) amounted to 113 µg/mL; in data set [1] (slurry time 15 min), 121 µg/mL; in data set [1] (slurry time 60 min), 117 µg/mL; in data set [2] (slurry time 5 min), 89 µg/mL; in data set [2] (slurry time 15 min) it was 97 µg/mL; in data set [2] (slurry time 60 min), 93 µg/mL. The food effect entry in data set [4] (compared to darolutamide Form I) is recorded as “significantly lower food effect”. Also, the “blood levels when administered without food” value in data set [4] (without food) is “still achieving therapeutically effective blood levels”. Also, the “phase change during the GMS experiments” value in data set [3] (25° C.) is reported as “Neither form I nor form II underwent any phase change”. Also, the “hygroscopicity (comparison)” value in data set [3] (GMS, 25° C.) is reported as “less hygroscopic than form I”. Also, the “water uptake from 0% to 90% RH” value in data set [3] (GMS) was “+1.3%”.
